Measured values as given in patent US20230365537A1, “POLO LIKE KINASE 4 INHIBITORS” (ORIC Pharmaceuticals, Inc., priority 2021, published 2023).

Legend:
[1] = biological target: human recombinant Aurora B (Homo sapiens (Human), UniProt Q96GD4); test: Aurora B Kinase Biochemical Assay (ADP-Glo); conditions: ratio of Aurora B IC50 to PLK4 IC50 (selectivity)
Outline: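 Recombinant human Aurora B (20 nM in pH 7.5 HEPES buffer with MgCl2, EGTA, DTT, Brij-35, BSA) preincubated with compound 15 min at RT. ADP formed quantified by ADP-Glo luminescence after ATP depletion (40 min) and detection (30 min). IC50 from four-parameter non-linear regression.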

[2] = biological target: human recombinant PLK4 (Homo sapiens (Human), UniProt O00444); test: PLK4 Biochemical Assay (ADP-Glo); conditions: 0.5 nM PLK4, 8.0 µM ATP, 4.7 µM MBP, 6 hours at RT
human recombinant PLK4, sequence (O00444 whole entry): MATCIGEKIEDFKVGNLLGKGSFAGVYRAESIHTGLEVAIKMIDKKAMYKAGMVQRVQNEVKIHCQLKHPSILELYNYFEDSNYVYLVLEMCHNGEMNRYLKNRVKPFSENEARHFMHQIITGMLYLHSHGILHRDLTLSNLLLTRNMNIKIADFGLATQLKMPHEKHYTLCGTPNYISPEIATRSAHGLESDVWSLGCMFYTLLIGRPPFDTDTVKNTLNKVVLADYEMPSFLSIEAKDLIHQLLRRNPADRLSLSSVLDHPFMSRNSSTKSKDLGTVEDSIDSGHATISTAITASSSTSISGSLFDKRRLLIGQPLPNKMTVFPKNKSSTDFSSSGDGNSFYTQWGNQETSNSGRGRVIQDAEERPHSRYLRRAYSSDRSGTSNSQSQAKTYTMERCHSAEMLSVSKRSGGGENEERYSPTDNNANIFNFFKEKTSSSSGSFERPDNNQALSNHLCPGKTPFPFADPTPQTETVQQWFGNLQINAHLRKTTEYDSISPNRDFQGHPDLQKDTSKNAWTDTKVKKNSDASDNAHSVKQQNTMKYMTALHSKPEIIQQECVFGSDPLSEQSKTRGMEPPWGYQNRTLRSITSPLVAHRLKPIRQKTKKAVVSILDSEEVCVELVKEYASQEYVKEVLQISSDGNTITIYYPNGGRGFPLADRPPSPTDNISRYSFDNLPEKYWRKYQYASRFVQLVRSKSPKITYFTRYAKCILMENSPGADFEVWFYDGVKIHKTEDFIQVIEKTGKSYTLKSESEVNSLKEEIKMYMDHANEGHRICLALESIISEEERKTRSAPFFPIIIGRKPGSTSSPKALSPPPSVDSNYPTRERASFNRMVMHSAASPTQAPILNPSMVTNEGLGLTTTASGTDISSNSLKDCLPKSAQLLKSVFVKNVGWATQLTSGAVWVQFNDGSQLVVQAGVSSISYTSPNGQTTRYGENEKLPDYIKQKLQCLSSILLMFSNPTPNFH
Outline: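 Recombinant human PLK4 (added at 1.0 nM) was preincubated 15 min at RT with compound in 50 mM HEPES pH 7.5, 10 mM MgCl2, 1 mM EGTA, 1 mM DTT, 0.01% Brij-35, 0.01% BSA. ADP formed was detected by ADP-Glo luminescence (40 min ATP depletion, 30 min detection). IC50 came from a four-parameter fit.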

[3] = biological target: human recombinant Aurora A (Homo sapiens (Human), UniProt O14965); test: Aurora A Kinase Biochemical Assay (ADP-Glo); conditions: ratio of Aurora A IC50 to PLK4 IC50 (selectivity)
human recombinant Aurora A, sequence (O14965 whole entry): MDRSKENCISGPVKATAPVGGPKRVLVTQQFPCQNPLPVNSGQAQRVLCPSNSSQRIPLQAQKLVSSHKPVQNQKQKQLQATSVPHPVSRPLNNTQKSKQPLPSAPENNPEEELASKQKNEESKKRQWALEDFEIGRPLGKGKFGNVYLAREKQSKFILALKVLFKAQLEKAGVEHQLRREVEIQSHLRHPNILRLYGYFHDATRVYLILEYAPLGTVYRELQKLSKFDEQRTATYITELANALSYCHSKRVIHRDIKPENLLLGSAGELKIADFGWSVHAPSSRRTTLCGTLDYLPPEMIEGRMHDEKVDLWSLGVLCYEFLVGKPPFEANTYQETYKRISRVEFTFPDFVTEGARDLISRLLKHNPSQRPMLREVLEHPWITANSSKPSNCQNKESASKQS

[4] = test system: CHP-134 cells; test: CHP134 CellTiter-Glo (CTG) Assay; assay type: cell-based; conditions: 5 days, viable cells by CellTiter-Glo
Method: Cells were seeded (200 cells/well) in 384-well plates for 16 hours. On day two, nine serial 1:3 compound dilutions were made in DMSO in a 96-well plate. The compounds were then further diluted into growth media using a BRAVO robot (Agilent, Santa Clara, CA). The diluted compounds were then added to quadruplicate wells in the 384-well cell plate and incubated at 37° C. and 5% CO2. After 5 days, relative numbers of viable cells were measured by luminescence using CellTiter-Glo® (Promega) according to the manufacturer’s instructions and read on a SPARK Multimode Microplate Reader (Tecan, Mannedorf Switzerland). The IC50 calculations for the values reported in Table 2 were carried out using Prism 6.0 software (GraphPad, San Diego).

human recombinant Aurora B, sequence (Q96GD4 whole entry): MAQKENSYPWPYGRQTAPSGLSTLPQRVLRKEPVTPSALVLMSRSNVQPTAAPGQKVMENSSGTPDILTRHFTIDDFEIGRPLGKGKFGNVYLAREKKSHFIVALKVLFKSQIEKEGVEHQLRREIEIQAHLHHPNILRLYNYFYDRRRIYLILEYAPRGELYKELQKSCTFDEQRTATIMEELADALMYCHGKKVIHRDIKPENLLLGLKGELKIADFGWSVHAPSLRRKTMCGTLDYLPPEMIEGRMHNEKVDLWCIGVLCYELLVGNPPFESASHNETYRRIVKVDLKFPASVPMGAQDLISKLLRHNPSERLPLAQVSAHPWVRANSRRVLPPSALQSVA

Row | Compound | [Aurora B IC50 (nM)]/[PLK4 IC50 (nM)] [1] | IC50 [2] | [Aurora A IC50 (nM)]/[PLK4 IC50 (nM)] [3] | IC50 ([4]; Homo sapiens, CHP-134, 120 h) | IC50 [4]
1 | COc1ccc2c(c1)[C@]1(CC1c1ccc3c(/C=C/c4ccc(CN5C[C@@H](C)O[C@@H](C)C5)cc4)n[nH]c3c1)C(=O)N2 (some centres unmarked) [CFI-400495, reference compound] | – | – | – | 9.08 nM | –
2 | COc1ccc2c(c1)[C@]1(C[C@H]1c1ccc3c(Nc4ncnc(N5CCOCC5)c4OC)n[nH]c3c1)C(=O)N2 [Example 11, (1R,2S)-5′-Methoxy-2-(3-{[5-methoxy-6-(morpholin-4-yl)pyrimidin-4-yl)amino}-1H-indazol-6-yl)spiro[cyclopropane-1,3′-indol]-2′(1′H)-one] | 77.87 | 4.88 nM | 3277.276 | 2950 nM | –
3 | COc1ccc2c(c1)[C@]1(C[C@H]1c1ccc3c(Nc4ncnc(N5CCCCC5)c4OC)n[nH]c3c1)C(=O)N2 [Example 12, (1R.2S)-5′-Methoxy-2-(3-{[5-methoxy-6-(piperidin-1-yl)pyrimidin-4-yl]amino}-1H-indazol-6-yl)spiro[cyclopropane-1,3′-indol]-2′(1′H)-one] | – | 4.96 nM | – | 2030 nM | –
4 | COc1ccc2c(c1)[C@]1(C[C@H]1c1ccc3c(Nc4nc(OC)ncc4Cl)n[nH]c3c1)C(=O)N2 [Example 23, (1R,2S)-2-{3-[(5-chloro-2-methoxypyrimidin-4-yl)amino]-1H-indazol-6-yl}-5′-methoxyspiro[cyclopropano-1,3′-indol]-2′(1′H)-one] | 170.7409 | 5.05 nM | 215.5309 | 45.9 nM | –
5 | COc1ccc2c(c1)[C@]1(C[C@H]1c1ccc3c(Nc4nc(C)nc(N5CCOCC5)c4OC)n[nH]c3c1)C(=O)N2 [Example 41, (1R,2S)-5′-methoxy-2-(3-{[5-methoxy-2-methyl-6-(morpholin-4-yl)pyrimidin-4-yl]amino}-1H-indazol-6-yl)spiro[cyclopropane-1,3′-indol]-2′(1′H)-one] | 471.4128 | 2.71 nM | 2257.47 | 844 nM | –
6 | COc1ccc2c(c1)[C@]1(C[C@H]1c1ccc3c(Nc4nc(Cl)nc(N5CCOCC5)c4OC)n[nH]c3c1)C(=O)N2 [Example 48, (1R,2S)-2-(3-{[2-chloro-5-methoxy-6-(morpholin-4-yl)pyrimidin-4-yl]amino}-1H-indazol-6-yl)-5′-metboiyspiro[cyclopropane-1,3′-indol]-2′(1′H)-one] | 292.3406 | 3.28 nM | 1948.123 | 742 nM | –
7 | COc1ccc2c(c1)[C@]1(C[C@H]1c1ccc3c(Nc4ncnc(N5C[C@@H](C)O[C@@H](C)C5)c4OC)n[nH]c3c1)C(=O)N2 [Example 52, (lR,2S)-2-[3-({6-[(2R,6S)-2,6-dimethylmorpholin-4-yl]-5-methoxypyrimidin-4-yl}amino)-1H-indazol-6-yl]-5′-methoxyspiro[cydopropane-1,3′-indol]-2′(1′H)-one] | 55.0706 | 7.01 nM | 2009.699 | 2260 nM | –
8 | COc1ccc2c(c1)[C@]1(C[C@H]1c1ccc3c(Nc4nc(OC)ncc4OC)n[nH]c3c1)C(=O)N2 [Example 156, (1R,2S)-2-{3-[(2,5-dimethoxypyrimidin-4-yl)amino]-1H-indazol-6-yl}-5′-methoxyspiro[cyclopropane-1,3′-indol]-2′(1′H)-one] | – | – | – | 494 nM | –
9 | COc1ccc2c(c1)[C@]1(C[C@H]1c1ccc3c(Nc4cc(N5CCN(C)C5=O)cnc4OC)n[nH]c3c1)C(=O)N2 [Example 221, (1R,2S)-5′-methoxy-2-(3-{[2-methoxy-5-(3-methyl-2-oxoimidazolidin-1-yl)pyridin-3-yl]amino}-1H-indazol-6-yl)spiro[cyclopropane-1,3′-indol]-2′(1′H)-one] | – | – | – | 849 nM | –
10 | COc1ccc2c(c1)[C@]1(C[C@H]1c1ccc3c(Nc4cc(S(=O)(=O)C5CCOCC5)ccc4OC)n[nH]c3c1)C(=O)N2 [Example 224, (1R,2S)-5′-methoxy-2-{3-[2-methoxy-5-(oxane-4-sulfonyl)anilino]-1H-indazol-6-yl}spiro[cyclopropane-1,3′-indol]-2′(1′H)-one] | – | – | – | 2020 nM | –

Further compounds by falling IC50 [2], results first:

Row | [Aurora B IC50 (nM)]/[PLK4 IC50 (nM)] [1] | IC50 [2] | [Aurora A IC50 (nM)]/[PLK4 IC50 (nM)] [3] | Compound | IC50 ([4]; Homo sapiens, CHP-134, 120 h) | IC50 [4]
11 | 135.8985 | 2.52 nM | 2542.642 | COc1ccc2c(c1)[C@]1(C[C@H]1c1ccc3c(Nc4ncnc(N5CC(O)C5)c4Cl)n[nH]c3c1)C(=O)N2 [Example 46, (1R,2S)-2-(3-{[5-chloro-6-(3-hydroxyazetidin-1-yl)pyrimidin4-yl]amino}-1H-indazol-6-yl)-5′-methoxyspiro[cyclopropane-1,3′-indol]-2′(1′H)-one] | 1430 nM | –
12 | 306.8323 | 2.25 nM | 4489.796 | COc1ccc2c(c1)[C@]1(C[C@H]1c1ccc3c(Nc4ncnc(N5CCN(C)CC5)c4Cl)n[nH]c3c1)C(=O)N2 [Example 20, (1R,2S)-2-(3-{[5-chloro-6-(4-methylpiperazin-1-yl)pyrimidin-4-yl]amino}-1H-indazol-6-yl)-5′-methoxyspiro[cyclopropane-1,3′-indol]-2′(1′H)-one] | 263 nM | –
13 | 102.4323 | 2.18 nM | 735.1996 | COc1ccc2c(c1)[C@]1(C[C@H]1c1ccc3c(Nc4ccc([S+](C)[O-])nc4OC)n[nH]c3c1)C(=O)N2 (single isomer, unassigned) [Example 240] | – | 422 nM
14 | 309.1097 | 1.93 nM | 727.2256 | COc1ccc2c(c1)[C@]1(C[C@H]1c1ccc3c(Nc4ncc(S(=O)(=O)C(F)F)cc4OC)n[nH]c3c1)C(=O)N2 [Example 280, (1R,2S)-2-{3-[(5-difluoromethanesulfonyl-3-methoxypyridin-2-yl)amino]-1H-indazol-6-yl}-5′-methoxy-1′H-spiro[cyclopropane-1,3′-indol]-2′-one] | – | –
15 | 229.0739 | 1.71 nM | 485.6389 | COc1ccc2c(c1)[C@]1(C[C@H]1c1ccc3c(Nc4nc(C5CCOC5)ncc4OC)n[nH]c3c1)C(=O)N2 (single isomer, unassigned) [Example 201] | 455 nM | –
16 | 466.8047 | 1.69 nM | 1429.5857 | COc1ccc2c(c1)[C@]1(C[C@H]1c1ccc3c(Nc4ccc([S+](C)[O-])nc4OC)n[nH]c3c1)C(=O)N2 (single isomer, unassigned) [Example 239] | – | 949 nM
17 | 103.0876 | 1.59 nM | 954.6314 | COc1ccc2c(c1)[C@]1(C[C@H]1c1ccc3c(Nc4nc(Cl)ncc4OC)n[nH]c3c1)C(=O)N2 [Example 10, (1R,2S)-2-{3-[(2-Chloro-5-methoxypyrimidin-4-yl)amino]-1H-indazol-6-yl}-5′-methoxyspiro[cyclopropane-1,3′-indol]-2′(1′H)-one] | 438 nM | –
18 | 104.3011 | 1.3 nM | 1879.416 | COc1ccc2c(c1)[C@]1(C[C@H]1c1ccc3c(Nc4ncnc(N5CC(OC)C5)c4Cl)n[nH]c3c1)C(=O)N2 [Example 47, (1R,2S)-2-(3-{[5-chloro-6-(3-methoxyazetidin-1-yl)pyrimidin-4-yl]amino}-1H-indazol-6-yl)-5′-methoxyspiro[cyclopropane-1,3′-indol]-2′(1′H)-one] | 610 nM | –
19 | 1241.883 | 1.23 nM | 3031.656 | COc1ccc2c(c1)[C@]1(C[C@H]1c1ccc3c(Nc4nc(C5CC5)nc(N5CCOCC5)c4OC)n[nH]c3c1)C(=O)N2 [Example 51, (1R,2S)-2-(3-1[2-cyclopropyl-5-methoxy-6-(morpholin-4-yl)pyrimidin-4-yl]aminol-1H-indezol-6-yl)-5′-methoxyapiro[cyclopropane-1,3′-indol]-2′(1′H)-one] | 143 nM | –
20 | 240.6394 | 0.694 nM | 4791.187 | COc1ccc2c(c1)[C@]1(C[C@H]1c1ccc3c(Nc4ncnc(N5CCOCC5)c4Cl)n[nH]c3c1)C(=O)N2 [Example 9, (1R,2S)-2-(3-{[5-Chloro-6-(morpholin-4-yl)pyrimidin-4-yl]amino}-1H-indazol-6-yl)-5′-methoxyspiro[cyclopropane-1,3′-indol]-2′(1′H)-one] | 99.7 nM | –
